Assay results from ChEMBL document CHEMBL1149220, “1-(2-Naphthyl)-1H-pyrazole-5-carboxylamides as potent factor Xa inhibitors. Part 2: A survey of P4 motifs” (Bioorg Med Chem Lett, 2004).
pIC50, pKi: −log10 of the molar value.

What was measured:
Coagulation factor X [1] = molecular target: T1, Coagulation factor X (Homo sapiens, UniProt P00742); test: Inhibitory concentration against human Coagulation factor X
Coagulation factor X [2] = molecular target: T1, Coagulation factor X; test: In vitro anticoagulant potency measured in human plasma by thrombin generation (TG) assay expressed as 2 x TG; assay type: functional, cell-free
Coagulation factor X [3] = molecular target: T1, Coagulation factor X; test: Binding affinity against Coagulation factor X
Prothrombin = Prothrombin (Homo sapiens, UniProt P00734); test: Inhibitory concentration of compound was determined against thrombin
Kallikrein-1 = Kallikrein-1 (Homo sapiens, UniProt P06870); test: Inhibitory concentration of compound was determined against kallikrein
[4] = molecular target: T2, Vitamin K-dependent protein C (Homo sapiens, UniProt P04070); test: Inhibitory concentration of compound was determined against activated protein C
[5] = Volume of distribution in rat; assay type: ADME, organism-based; settings: in vivo
Serine protease 1 = Serine protease 1 (Homo sapiens, UniProt P07477); test: Inhibitory concentration of compound was determined against trypsin
Plasminogen = test: Inhibitory concentration of compound was determined against Plasmin
[6] = Bioavailability in rat; assay type: ADME, organism-based; settings: in vivo
[7] = molecular target: Tissue-type plasminogen activator (Homo sapiens, UniProt P00750); test: Inhibitory concentration against tissue type plasminogen activator
[8] = Half-life determined in rat; assay type: ADME, organism-based; settings: in vivo
[9] = Clearance rate in rat; assay type: ADME, organism-based; settings: in vivo
[10] = molecular target: T2, Vitamin K-dependent protein C; test: Inhibitory concentration of compound was determined against activated protein C (aPC)

Chain of Kallikrein-1 (P06870 whole entry): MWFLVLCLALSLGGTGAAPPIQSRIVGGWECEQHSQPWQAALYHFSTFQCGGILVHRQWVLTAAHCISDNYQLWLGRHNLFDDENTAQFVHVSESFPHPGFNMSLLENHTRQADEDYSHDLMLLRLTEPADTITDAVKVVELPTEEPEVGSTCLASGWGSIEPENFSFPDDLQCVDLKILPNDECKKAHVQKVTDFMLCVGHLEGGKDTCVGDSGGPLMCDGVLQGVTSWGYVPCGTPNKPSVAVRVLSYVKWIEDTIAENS
T2 sequence (P04070 43-197 limits assumed): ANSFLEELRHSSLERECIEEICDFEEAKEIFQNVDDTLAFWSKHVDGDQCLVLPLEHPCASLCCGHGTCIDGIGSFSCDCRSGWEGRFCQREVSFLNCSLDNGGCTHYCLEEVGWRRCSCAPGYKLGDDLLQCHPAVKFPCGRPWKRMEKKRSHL
T2 sequence (P04070 212-461 limits assumed): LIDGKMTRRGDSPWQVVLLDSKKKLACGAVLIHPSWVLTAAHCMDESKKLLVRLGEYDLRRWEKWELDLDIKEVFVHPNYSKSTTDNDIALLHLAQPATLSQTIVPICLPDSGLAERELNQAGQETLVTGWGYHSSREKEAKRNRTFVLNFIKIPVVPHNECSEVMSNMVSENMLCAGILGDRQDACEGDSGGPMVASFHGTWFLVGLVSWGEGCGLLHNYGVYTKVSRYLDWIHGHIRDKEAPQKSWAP
Chain of Serine protease 1 (P07477 whole entry): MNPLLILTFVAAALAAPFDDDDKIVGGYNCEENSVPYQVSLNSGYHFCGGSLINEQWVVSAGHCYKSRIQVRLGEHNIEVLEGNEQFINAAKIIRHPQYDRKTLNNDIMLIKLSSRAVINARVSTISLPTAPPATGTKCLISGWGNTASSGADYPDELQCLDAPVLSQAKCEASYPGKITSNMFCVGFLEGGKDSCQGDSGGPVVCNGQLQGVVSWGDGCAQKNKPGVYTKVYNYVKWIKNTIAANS
Chain of Tissue-type plasminogen activator (P00750 whole entry): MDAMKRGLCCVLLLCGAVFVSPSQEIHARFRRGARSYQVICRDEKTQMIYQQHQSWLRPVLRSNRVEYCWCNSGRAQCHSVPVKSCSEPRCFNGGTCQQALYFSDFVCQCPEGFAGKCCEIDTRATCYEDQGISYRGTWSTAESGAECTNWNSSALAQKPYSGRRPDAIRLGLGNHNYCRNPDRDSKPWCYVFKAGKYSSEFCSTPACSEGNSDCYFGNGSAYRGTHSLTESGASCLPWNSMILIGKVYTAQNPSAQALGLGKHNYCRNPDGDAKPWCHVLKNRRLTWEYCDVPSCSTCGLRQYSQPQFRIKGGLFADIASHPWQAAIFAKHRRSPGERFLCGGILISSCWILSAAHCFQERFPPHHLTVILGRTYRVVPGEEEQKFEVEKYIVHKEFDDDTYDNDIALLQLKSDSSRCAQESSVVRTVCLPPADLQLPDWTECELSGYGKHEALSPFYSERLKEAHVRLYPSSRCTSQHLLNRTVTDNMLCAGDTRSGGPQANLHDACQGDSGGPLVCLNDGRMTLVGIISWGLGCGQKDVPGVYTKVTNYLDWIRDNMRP
Chain of Plasminogen (Q01177 97-581 limits assumed): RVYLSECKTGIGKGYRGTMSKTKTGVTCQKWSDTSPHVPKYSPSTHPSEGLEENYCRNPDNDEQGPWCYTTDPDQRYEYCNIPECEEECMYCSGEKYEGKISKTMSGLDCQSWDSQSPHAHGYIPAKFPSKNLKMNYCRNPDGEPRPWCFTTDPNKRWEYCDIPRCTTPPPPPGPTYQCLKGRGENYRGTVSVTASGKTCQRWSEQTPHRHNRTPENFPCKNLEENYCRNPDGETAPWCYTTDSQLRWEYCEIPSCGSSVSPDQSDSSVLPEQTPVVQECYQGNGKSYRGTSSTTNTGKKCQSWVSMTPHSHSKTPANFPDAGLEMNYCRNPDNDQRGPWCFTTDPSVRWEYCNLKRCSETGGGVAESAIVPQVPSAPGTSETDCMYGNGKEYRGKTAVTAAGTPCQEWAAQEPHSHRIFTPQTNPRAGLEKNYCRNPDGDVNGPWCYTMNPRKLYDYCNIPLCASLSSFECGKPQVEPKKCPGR
Chain of Plasminogen (Q01177 582-812 limits assumed): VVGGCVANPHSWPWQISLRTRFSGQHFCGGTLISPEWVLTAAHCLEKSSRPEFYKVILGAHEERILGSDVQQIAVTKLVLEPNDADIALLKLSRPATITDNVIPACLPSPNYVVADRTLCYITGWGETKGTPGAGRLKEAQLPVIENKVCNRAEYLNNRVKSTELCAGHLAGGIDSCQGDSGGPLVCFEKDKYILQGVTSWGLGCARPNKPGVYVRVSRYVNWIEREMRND
T1 sequence (P00742 41-179 limits assumed): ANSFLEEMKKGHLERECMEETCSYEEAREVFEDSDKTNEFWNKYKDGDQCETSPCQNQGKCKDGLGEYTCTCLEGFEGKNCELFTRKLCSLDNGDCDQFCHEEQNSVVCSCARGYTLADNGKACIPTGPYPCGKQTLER
T1 sequence (P00742 235-488 limits assumed): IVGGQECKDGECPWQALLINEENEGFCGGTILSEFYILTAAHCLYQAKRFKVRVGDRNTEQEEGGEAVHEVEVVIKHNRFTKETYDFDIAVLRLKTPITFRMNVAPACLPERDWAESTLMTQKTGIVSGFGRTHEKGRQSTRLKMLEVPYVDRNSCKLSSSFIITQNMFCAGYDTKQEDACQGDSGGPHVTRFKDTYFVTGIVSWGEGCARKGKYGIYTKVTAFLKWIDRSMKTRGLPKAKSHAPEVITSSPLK

pIC50 (Coagulation factor X [1]) | Activity (Coagulation factor X [2]) | pKi (Coagulation factor X [3]) | Structure (SMILES) | other results
7.85 |  |  | Cc1cc(C(=O)Nc2ccc(-c3ccccc3S(C)(=O)=O)cc2F)n(-c2cc3ccccc3cc2F)n1 | 
7.06 |  |  | Cc1cc(C(=O)Nc2ccc(N3CCOCC3)cc2)n(-c2ccc3cc(Cl)ccc3c2)n1 | 
7.24 |  |  | Cc1cc(C(=O)Nc2ccc(N3CCCC3=O)cc2F)n(-c2cc3ccccc3cc2S(C)(=O)=O)n1 | 
8.52 | > 5 µM | 8.47 | Cc1cc(C(=O)Nc2ccc(-c3ccccc3S(N)(=O)=O)cc2F)n(-c2ccc3cc(Cl)ccc3c2)n1 | 
7.57 |  |  | Cc1cc(C(=O)Nc2ccc(N3CCCCC3=O)cc2F)n(-c2cc3ccccc3cc2S(C)(=O)=O)n1 | 
8.70 | 0.44 µM | 9.10 | Cc1cc(C(=O)Nc2ccc(N3CCOCC3=O)cc2F)n(-c2cc3ccccc3cc2S(C)(=O)=O)n1 | pIC50 (Prothrombin): < 5.00; pIC50 (Kallikrein-1): < 5.00; pIC50 [4]: < 5.00; Vd [5]: 0.8 L/kg; pIC50 (Serine protease 1): < 5.00; pIC50 (Plasminogen): < 5.00; bioavailability [6]: 19.3%; pIC50 [7]: < 5.00; half-life [8]: 0.5 h; clearance [9]: 16.8 mL/min/kg
6.42 |  |  | Cc1cc(C(=O)Nc2ccc(-c3cccc(C(=N)N(C)C)c3)cc2)n(-c2ccc3cc(Cl)ccc3c2)n1 | 
9.00 | 5 µM | 9.30 | Cc1cc(C(=O)Nc2ccc(N3CCOCC3=O)cc2F)n(-c2ccc3cc(Cl)ccc3c2)n1 | 
8.70 | > 5 µM | 9.30 | Cc1cc(C(=O)Nc2ccc(N3CCOCC3=O)cc2F)n(-c2cc3ccccc3cc2F)n1 | 
5.68 |  |  | Cc1cc(C(=O)Nc2ccc(-n3nccn3)cc2)n(-c2ccc3cc(Cl)ccc3c2)n1 | 
8.05 | 1 µM | 8.77 | Cc1cc(C(=O)Nc2ccc(-c3ccccc3S(C)(=O)=O)cc2F)n(-c2cc3ccccc3cc2S(C)(=O)=O)n1 | pIC50 (Prothrombin): < 5.00; pIC50 (Kallikrein-1): < 5.00; Vd [5]: 2.6 L/kg; pIC50 (Serine protease 1): < 5.00; pIC50 [10]: < 5.00; pIC50 (Plasminogen): < 5.00; bioavailability [6]: 18%; pIC50 [7]: < 5.00; half-life [8]: 0.7 h; clearance [9]: 41.2 mL/min/kg
8.70 | 2.2 µM | 8.62 | Cc1cc(C(=O)Nc2ccc(-c3ccccc3CN)cc2F)n(-c2cc3ccccc3cc2F)n1 | pIC50 (Prothrombin): < 5.00; pIC50 (Kallikrein-1): < 5.00; Vd [5]: 11 L/kg; pIC50 (Serine protease 1): < 5.00; pIC50 [10]: < 5.00; pIC50 (Plasminogen): < 5.00; bioavailability [6]: 22.8%; pIC50 [7]: < 5.00; half-life [8]: 2.5 h; clearance [9]: 51.8 mL/min/kg
8.52 | > 5 µM | 8.96 | Cc1cc(C(=O)Nc2ccc(N3CCCCC3=O)cc2)n(-c2ccc3cc(Cl)ccc3c2)n1 | 
8.22 | > 5 µM | 8.74 | Cc1cc(C(=O)Nc2ccc(C(=O)N3CCCC3)cc2)n(-c2ccc3cc(Cl)ccc3c2)n1 | 
8.70 | 1.7 µM | 8.82 | Cc1cc(C(=O)Nc2ccc(-c3ccccc3CN(C)C)cc2F)n(-c2ccc3cc(Cl)ccc3c2)n1 | pIC50 (Prothrombin): 5.26; pIC50 (Kallikrein-1): 5.01; Vd [5]: 22.1 L/kg; pIC50 (Serine protease 1): < 5.00; pIC50 [10]: < 5.00; pIC50 (Plasminogen): < 5.00; bioavailability [6]: 35.2%; pIC50 [7]: < 5.00; half-life [8]: 7.2 h; clearance [9]: 35.7 mL/min/kg
7.64 |  |  | Cc1cc(C(=O)Nc2ccc(N3CCOCCC3=O)cc2F)n(-c2cc3ccccc3cc2S(C)(=O)=O)n1 | 
7.89 | > 5 µM |  | Cc1cc(C(=O)Nc2ccc(C(=O)N(C)C)cc2)n(-c2ccc3cc(Cl)ccc3c2)n1 | 
6.97 |  |  | Cc1cc(C(=O)Nc2ccc(-n3ccnc3)cc2)n(-c2ccc3cc(Cl)ccc3c2)n1 | 
7.66 | 5 µM |  | Cc1cc(C(=O)Nc2ccc(N3CCCN(C)CC3)cc2)n(-c2ccc3cc(Cl)ccc3c2)n1 | 
7.41 |  |  | Cc1cc(C(=O)Nc2ncc(-c3ccccc3S(N)(=O)=O)cn2)n(-c2cc3ccccc3cc2F)n1 | 
9.00 | 3 µM | 9.52 | Cc1cc(C(=O)Nc2ccc(N3CCOCC3=O)cc2)n(-c2ccc3cc(Cl)ccc3c2)n1 | 
8.15 | 2 µM | 8.60 | Cc1cc(C(=O)Nc2ncc(-c3ccccc3S(N)(=O)=O)cn2)n(-c2ccc3cc(Cl)ccc3c2)n1 | 
7.39 |  |  | Cc1cc(C(=O)Nc2ccc(N3CCNCC3=O)cc2F)n(-c2cc3ccccc3cc2S(C)(=O)=O)n1 | 
8.10 | > 5 µM | 8.54 | Cc1cc(C(=O)Nc2ccc(-n3ccnc3C)cc2)n(-c2ccc3cc(Cl)ccc3c2)n1 | 
7.44 |  |  | Cc1cc(C(=O)Nc2ccc(N3CCCNCC3)cc2)n(-c2ccc3cc(Cl)ccc3c2)n1 | 
6.95 |  |  | Cc1cc(C(=O)Nc2ccc(-n3ccnn3)cc2)n(-c2ccc3cc(Cl)ccc3c2)n1 | 
6.67 |  |  | Cc1cc(C(=O)Nc2ccc(-n3cccn3)cc2)n(-c2ccc3cc(Cl)ccc3c2)n1 | 
7.41 |  |  | Cc1cc(C(=O)Nc2ccc(-c3ccccc3CN)cc2)n(-c2ccc3cc(Cl)ccc3c2)n1 | 

pIC50 (Coagulation factor X [1]) | Activity (Coagulation factor X [2]) | pKi (Coagulation factor X [3]) | Structure (SMILES) | other results
8.22 | > 5 µM | 8.74 | Cc1cc(C(=O)Nc2ccc(-c3ccccc3S(C)(=O)=O)cc2F)n(-c2ccc3cc(Cl)ccc3c2)n1 | 
7.33 |  |  | Cc1cc(C(=O)Nc2ccc(N3CCCCCC3=O)cc2F)n(-c2cc3ccccc3cc2S(C)(=O)=O)n1 | 
6.89 |  |  | Cc1cc(C(=O)Nc2ccc(N3CCNCCC3=O)cc2)n(-c2ccc3cc(Cl)ccc3c2)n1 | 
7.89 |  |  | Cc1cc(C(=O)Nc2ccc(-n3ccnc3CN)cc2F)n(-c2cc3ccccc3cc2F)n1 | 
8.30 | 2 µM | 8.74 | Cc1cc(C(=O)Nc2ccc(-c3ccccc3CN(C)C)cc2)n(-c2ccc3cc(Cl)ccc3c2)n1 | 
7.34 |  |  | Cc1cc(C(=O)Nc2ccc(-c3ccccc3S(N)(=O)=O)cn2)n(-c2cc3ccccc3cc2S(C)(=O)=O)n1 | 
8.15 | 0.64 µM | 8.62 | Cc1cc(C(=O)Nc2ccc(-c3ccccc3CN(C)C)cc2F)n(-c2cc3ccccc3cc2S(C)(=O)=O)n1 | pIC50 (Prothrombin): < 5.00; pIC50 (Kallikrein-1): < 5.00; Vd [5]: 27.3 L/kg; pIC50 (Serine protease 1): < 5.00; pIC50 [10]: < 5.00; pIC50 (Plasminogen): < 5.00; bioavailability [6]: 18%; pIC50 [7]: < 5.00; half-life [8]: 2.8 h; clearance [9]: 114 mL/min/kg
6.17 |  |  | Cc1cc(C(=O)Nc2ccc(N3CCNCCC3=O)cc2F)n(-c2cc3ccccc3cc2S(C)(=O)=O)n1 | 
7.59 |  |  | Cc1cc(C(=O)Nc2ccc(-c3ccccc3C(=N)N(C)C)cc2)n(-c2ccc3cc(Cl)ccc3c2)n1 | 
8.10 | > 5 µM | 8.55 | Cc1cc(C(=O)Nc2ccc(-n3ccnc3CN(C)C)cc2)n(-c2ccc3cc(Cl)ccc3c2)n1 | 
7.04 |  |  | Cc1cc(C(=O)Nc2ccc(-c3cccnc3)cc2F)n(-c2ccc3cc(Cl)ccc3c2)n1 | 
7.15 |  |  | Cc1cc(C(=O)Nc2ccc(-c3cccc(CN)c3)cc2)n(-c2ccc3cc(Cl)ccc3c2)n1 | 
7.09 |  |  | Cc1cc(C(=O)Nc2ccc(-c3ccccc3S(N)(=O)=O)cn2)n(-c2cc3ccccc3cc2F)n1 | 
7.82 |  |  | Cc1cc(C(=O)Nc2ccc(-n3ccnc3C)cc2F)n(-c2ccc3cc(Cl)ccc3c2)n1 | 
7.18 |  |  | Cc1cc(C(=O)Nc2ccc(C(=O)N3CCCCC3)cc2)n(-c2ccc3cc(Cl)ccc3c2)n1 | 
8.30 | 4.5 µM | 8.96 | Cc1cc(C(=O)Nc2ccc(-c3ccccc3S(N)(=O)=O)cc2F)n(-c2cc3ccccc3cc2S(C)(=O)=O)n1 | 
6.88 |  |  | Cc1cc(C(=O)Nc2ccc(N3CCCCC3)cc2)n(-c2ccc3cc(Cl)ccc3c2)n1 | 
 | > 5 µM | 8.85 | Cc1cc(C(=O)Nc2ccc(-c3ccccc3S(C)(=O)=O)cc2)n(-c2ccc3cc(Cl)ccc3c2)n1 | 
8.30 | 2 µM | 8.72 | Cc1cc(C(=O)Nc2ccc(-c3ccccc3S(N)(=O)=O)cn2)n(-c2ccc3cc(Cl)ccc3c2)n1 | 
8.10 | 1.7 µM | 8.49 | Cc1cc(C(=O)Nc2ccc(-n3ccnc3CN(C)C)cc2F)n(-c2cc3ccccc3cc2S(C)(=O)=O)n1 | 
7.03 |  |  | Cc1cc(C(=O)Nc2ccc(-c3ccccn3)cc2F)n(-c2ccc3cc(Cl)ccc3c2)n1 | 
7.54 |  |  | Cc1cc(C(=O)Nc2ccc(-c3ccccc3S(N)(=O)=O)cc2F)n(-c2cc3ccccc3cc2F)n1 | 
 | 3 µM |  | Cc1cc(C(=O)Nc2ccc(-n3ccnc3CN(C)C)cc2F)n(-c2ccc3cc(Cl)ccc3c2)n1 | 
7.40 |  |  | Cc1cc(C(=O)Nc2ccc(-c3ccncc3)cc2F)n(-c2ccc3cc(Cl)ccc3c2)n1 | 
7.12 |  |  | Cc1cc(C(=O)Nc2ccc(-c3cccc(C(=N)N)c3)cc2)n(-c2ccc3cc(Cl)ccc3c2)n1 | 
 | > 5 µM |  | Cc1cc(C(=O)Nc2ccc(-c3ccccc3S(N)(=O)=O)cc2)n(-c2ccc3cc(Cl)ccc3c2)n1 | 
6.78 |  |  | Cc1cc(C(=O)Nc2ccc(N3CCN(C)CC3)cc2)n(-c2ccc3cc(Cl)ccc3c2)n1 | 
